Experimental data reported in ChEMBL document CHEMBL1156181, “B-Raf kinase inhibitors: hit enrichment through scaffold hopping” (Bioorg Med Chem Lett, 2010).
Each block holds one compound with its values, some of them ahead of it.

Columns and labels:
[1] = biological target: Phosphatidylinositol 4,5-bisphosphate 3-kinase catalytic subunit alpha isoform (Homo sapiens, UniProt P42336); assay: Inhibition of PI3Kalpha
[2] = biological target: Cyclin-dependent kinase 4 (Homo sapiens, UniProt P11802); assay: Inhibition of CDK4
[3] = biological target: Serine/threonine-protein kinase mTOR (Homo sapiens, UniProt P42345); assay: Inhibition of mTOR
[4] = biological target: Protein kinase C theta type (Homo sapiens, UniProt Q04759); assay: Inhibition of PKCtheta
[5] = biological target: RAC-alpha serine/threonine-protein kinase (Homo sapiens, UniProt P31749); assay: Inhibition of AKT
A-375 = assay: Growth inhibition of human A375 cells; format: functional, cell-based
[6] = Growth inhibition of human WM266.4 cells; format: functional, cell-based; details: WM 266-4
[7] = biological target: Tyrosine-protein kinase Lyn (Homo sapiens, UniProt P07948); assay: Inhibition of LYN
LoVo = assay: Growth inhibition of human LoVo cells; format: functional, cell-based
[8] = biological target: T1, Inhibitor of nuclear factor kappa-B kinase subunit beta (Homo sapiens, UniProt O14920); assay: Inhibition of IKK2
T1 sequence (O14920 whole entry): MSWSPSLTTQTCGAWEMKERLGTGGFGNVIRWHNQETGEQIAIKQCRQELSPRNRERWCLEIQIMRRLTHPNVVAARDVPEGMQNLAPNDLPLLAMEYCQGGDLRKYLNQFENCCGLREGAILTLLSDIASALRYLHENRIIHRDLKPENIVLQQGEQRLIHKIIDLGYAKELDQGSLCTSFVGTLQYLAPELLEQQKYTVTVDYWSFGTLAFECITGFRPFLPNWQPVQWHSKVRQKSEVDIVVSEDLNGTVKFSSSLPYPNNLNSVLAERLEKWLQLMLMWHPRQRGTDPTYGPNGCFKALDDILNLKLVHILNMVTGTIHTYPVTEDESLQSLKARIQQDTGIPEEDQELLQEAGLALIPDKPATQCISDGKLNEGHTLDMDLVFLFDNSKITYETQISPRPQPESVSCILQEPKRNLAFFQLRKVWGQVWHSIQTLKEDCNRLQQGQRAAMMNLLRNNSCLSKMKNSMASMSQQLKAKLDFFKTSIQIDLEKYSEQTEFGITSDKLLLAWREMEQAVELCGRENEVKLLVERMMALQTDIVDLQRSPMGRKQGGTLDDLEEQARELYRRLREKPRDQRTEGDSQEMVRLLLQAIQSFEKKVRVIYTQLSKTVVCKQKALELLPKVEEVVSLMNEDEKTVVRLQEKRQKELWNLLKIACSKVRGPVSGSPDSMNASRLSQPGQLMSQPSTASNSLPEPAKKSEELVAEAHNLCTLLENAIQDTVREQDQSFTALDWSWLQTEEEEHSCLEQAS

HT-29 = assay: Growth inhibition of human HT-29 cells; format: functional, cell-based
[9] = biological target: Tyrosine-protein kinase BTK (Homo sapiens, UniProt Q06187); assay: Inhibition of BTK
[10] = biological target: Proto-oncogene tyrosine-protein kinase Src (Homo sapiens, UniProt P12931); assay: Inhibition of SRC
[11] = biological target: T2, Tyrosine-protein kinase ITK/TSK (Homo sapiens, UniProt Q08881); assay: Inhibition of ITK
T2 sequence (Q08881 whole entry): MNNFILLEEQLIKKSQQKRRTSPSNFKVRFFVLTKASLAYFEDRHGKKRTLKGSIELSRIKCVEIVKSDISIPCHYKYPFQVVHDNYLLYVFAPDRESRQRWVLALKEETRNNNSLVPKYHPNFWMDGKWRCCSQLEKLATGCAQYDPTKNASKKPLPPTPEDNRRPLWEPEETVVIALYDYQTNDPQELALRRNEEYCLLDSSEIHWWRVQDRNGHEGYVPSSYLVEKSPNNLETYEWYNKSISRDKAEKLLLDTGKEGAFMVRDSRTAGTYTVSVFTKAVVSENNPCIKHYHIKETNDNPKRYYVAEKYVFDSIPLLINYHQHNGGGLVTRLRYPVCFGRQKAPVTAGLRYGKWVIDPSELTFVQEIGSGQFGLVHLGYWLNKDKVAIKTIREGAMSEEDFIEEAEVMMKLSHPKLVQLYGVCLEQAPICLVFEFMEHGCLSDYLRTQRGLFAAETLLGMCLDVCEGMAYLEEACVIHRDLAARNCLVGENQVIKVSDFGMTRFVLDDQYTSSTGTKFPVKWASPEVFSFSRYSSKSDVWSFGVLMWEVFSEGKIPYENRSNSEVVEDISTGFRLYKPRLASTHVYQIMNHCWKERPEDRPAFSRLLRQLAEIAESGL

Caco-2 = assay: Growth inhibition of human Caco-2 cells; format: functional, cell-based
[12] = biological target: Serine/threonine-protein kinase B-raf (Homo sapiens, UniProt P15056); assay: Inhibition of B-Raf
Serine/threonine-protein kinase B-raf, sequence (P15056 whole entry): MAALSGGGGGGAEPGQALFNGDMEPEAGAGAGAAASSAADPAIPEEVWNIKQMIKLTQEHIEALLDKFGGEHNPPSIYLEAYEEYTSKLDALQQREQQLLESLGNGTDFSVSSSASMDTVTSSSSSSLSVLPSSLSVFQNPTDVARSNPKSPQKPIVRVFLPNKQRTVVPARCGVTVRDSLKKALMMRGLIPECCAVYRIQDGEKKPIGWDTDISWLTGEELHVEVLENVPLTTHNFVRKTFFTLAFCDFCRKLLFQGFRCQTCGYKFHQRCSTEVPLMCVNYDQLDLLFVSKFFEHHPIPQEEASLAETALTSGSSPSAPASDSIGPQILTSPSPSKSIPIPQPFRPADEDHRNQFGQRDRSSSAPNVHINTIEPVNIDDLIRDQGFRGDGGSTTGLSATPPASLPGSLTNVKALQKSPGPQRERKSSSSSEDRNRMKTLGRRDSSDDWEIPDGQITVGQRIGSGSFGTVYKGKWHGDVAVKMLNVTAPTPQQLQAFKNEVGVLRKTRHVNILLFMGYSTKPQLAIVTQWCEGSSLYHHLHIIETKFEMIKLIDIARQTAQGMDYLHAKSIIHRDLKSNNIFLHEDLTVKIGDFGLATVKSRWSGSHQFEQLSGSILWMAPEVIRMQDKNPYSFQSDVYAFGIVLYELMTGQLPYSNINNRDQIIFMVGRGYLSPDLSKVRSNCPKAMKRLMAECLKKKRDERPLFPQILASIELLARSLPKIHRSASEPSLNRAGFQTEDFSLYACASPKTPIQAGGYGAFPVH

RAC-alpha serine/threonine-protein kinase, sequence (P31749 whole entry): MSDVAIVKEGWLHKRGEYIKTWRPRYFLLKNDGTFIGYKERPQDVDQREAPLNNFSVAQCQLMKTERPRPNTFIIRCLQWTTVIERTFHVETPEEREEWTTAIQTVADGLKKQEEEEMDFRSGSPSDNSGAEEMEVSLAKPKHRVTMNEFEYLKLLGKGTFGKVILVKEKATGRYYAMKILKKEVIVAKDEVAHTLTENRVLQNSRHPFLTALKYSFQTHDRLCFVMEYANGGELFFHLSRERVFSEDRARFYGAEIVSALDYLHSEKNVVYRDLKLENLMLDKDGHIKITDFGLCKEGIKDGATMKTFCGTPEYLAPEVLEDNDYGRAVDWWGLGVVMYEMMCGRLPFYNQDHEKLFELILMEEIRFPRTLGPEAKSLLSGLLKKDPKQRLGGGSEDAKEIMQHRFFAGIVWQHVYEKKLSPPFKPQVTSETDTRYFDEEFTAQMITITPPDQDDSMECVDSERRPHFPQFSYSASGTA
Protein kinase C theta type, sequence (Q04759 whole entry): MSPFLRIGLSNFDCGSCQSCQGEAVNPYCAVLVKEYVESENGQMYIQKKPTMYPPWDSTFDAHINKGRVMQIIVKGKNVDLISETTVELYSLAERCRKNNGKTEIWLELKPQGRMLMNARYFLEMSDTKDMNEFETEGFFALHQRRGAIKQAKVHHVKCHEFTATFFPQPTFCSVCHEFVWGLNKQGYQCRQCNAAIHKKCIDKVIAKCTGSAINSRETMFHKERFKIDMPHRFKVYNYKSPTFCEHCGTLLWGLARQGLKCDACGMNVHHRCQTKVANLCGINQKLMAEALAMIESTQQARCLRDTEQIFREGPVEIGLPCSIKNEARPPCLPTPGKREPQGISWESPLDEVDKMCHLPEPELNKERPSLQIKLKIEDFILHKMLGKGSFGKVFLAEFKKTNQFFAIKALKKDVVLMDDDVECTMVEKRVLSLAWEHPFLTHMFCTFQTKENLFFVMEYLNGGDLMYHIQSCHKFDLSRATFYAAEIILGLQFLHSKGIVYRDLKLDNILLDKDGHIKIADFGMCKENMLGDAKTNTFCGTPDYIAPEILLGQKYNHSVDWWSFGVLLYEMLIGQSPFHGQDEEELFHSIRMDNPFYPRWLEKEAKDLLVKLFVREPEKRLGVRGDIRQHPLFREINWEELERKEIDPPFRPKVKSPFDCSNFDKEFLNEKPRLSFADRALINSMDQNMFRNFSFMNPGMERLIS
Cyclin-dependent kinase 4, sequence (P11802 whole entry): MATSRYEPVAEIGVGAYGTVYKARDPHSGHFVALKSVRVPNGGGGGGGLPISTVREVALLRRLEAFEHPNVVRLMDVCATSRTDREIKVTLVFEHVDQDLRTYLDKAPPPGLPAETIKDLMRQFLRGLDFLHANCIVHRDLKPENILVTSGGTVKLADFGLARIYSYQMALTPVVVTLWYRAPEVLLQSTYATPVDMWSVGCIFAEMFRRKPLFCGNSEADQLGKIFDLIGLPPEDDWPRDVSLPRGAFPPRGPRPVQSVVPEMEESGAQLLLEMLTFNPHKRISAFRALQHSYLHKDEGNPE
Phosphatidylinositol 4,5-bisphosphate 3-kinase catalytic subunit alpha isoform, sequence (P42336 whole entry, canonical isoform): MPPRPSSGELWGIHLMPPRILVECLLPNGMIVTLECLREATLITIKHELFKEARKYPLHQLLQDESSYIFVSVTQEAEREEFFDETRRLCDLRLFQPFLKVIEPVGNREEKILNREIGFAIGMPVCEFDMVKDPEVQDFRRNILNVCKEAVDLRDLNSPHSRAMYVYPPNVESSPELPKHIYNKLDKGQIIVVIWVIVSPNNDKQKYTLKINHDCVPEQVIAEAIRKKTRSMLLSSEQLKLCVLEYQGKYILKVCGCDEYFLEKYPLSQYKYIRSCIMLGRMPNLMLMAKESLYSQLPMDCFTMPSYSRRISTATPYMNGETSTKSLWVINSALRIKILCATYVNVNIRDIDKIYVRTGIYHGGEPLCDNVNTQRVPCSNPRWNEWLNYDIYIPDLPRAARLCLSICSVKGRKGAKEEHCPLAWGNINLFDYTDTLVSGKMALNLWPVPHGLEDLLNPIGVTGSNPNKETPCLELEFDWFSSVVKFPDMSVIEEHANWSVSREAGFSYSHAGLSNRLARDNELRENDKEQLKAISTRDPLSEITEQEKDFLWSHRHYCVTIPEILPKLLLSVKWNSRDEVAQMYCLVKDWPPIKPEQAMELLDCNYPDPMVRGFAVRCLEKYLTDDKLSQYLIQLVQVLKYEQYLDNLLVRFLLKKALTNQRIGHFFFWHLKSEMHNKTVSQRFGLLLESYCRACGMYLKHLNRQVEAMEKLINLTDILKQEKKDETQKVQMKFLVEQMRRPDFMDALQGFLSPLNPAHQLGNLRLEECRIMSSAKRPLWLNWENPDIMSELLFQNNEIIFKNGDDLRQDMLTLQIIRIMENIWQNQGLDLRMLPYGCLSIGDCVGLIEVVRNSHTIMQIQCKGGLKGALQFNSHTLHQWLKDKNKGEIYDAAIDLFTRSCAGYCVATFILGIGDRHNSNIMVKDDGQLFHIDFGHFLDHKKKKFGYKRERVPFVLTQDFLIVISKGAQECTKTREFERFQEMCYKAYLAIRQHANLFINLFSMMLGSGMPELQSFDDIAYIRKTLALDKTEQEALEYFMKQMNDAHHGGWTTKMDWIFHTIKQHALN
Tyrosine-protein kinase Lyn, sequence (P07948 whole entry): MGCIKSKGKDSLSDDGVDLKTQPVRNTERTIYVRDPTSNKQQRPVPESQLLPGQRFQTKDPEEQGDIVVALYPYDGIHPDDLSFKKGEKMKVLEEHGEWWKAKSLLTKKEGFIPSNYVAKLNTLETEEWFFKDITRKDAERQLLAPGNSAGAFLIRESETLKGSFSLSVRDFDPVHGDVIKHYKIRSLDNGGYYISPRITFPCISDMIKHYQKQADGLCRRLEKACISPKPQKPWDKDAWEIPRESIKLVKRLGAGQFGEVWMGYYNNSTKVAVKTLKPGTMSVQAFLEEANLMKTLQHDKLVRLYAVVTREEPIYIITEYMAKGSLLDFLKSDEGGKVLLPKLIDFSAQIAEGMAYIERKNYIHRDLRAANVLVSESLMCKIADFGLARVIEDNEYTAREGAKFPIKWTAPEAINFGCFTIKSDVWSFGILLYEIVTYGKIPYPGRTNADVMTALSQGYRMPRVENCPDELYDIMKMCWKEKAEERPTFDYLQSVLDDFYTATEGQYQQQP
Tyrosine-protein kinase BTK, sequence (Q06187 whole entry): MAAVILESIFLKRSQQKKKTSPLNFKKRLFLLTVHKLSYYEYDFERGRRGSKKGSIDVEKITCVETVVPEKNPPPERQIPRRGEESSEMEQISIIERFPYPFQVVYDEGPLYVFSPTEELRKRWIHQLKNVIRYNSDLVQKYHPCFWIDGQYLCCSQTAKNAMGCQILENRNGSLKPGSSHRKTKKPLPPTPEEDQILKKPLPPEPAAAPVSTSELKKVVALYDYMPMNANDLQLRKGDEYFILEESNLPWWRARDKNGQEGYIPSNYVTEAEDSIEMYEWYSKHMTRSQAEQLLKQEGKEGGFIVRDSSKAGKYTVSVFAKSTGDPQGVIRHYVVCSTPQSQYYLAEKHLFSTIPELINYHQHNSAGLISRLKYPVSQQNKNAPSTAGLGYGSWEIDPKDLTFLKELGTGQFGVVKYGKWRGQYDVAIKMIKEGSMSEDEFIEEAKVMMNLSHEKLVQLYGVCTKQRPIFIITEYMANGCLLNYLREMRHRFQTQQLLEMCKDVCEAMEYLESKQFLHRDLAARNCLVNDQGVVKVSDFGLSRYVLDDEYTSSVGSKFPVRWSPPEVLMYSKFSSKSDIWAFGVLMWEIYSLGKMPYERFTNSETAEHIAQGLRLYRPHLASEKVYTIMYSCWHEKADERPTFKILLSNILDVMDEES
Proto-oncogene tyrosine-protein kinase Src, sequence (P12931 2-536 limits assumed): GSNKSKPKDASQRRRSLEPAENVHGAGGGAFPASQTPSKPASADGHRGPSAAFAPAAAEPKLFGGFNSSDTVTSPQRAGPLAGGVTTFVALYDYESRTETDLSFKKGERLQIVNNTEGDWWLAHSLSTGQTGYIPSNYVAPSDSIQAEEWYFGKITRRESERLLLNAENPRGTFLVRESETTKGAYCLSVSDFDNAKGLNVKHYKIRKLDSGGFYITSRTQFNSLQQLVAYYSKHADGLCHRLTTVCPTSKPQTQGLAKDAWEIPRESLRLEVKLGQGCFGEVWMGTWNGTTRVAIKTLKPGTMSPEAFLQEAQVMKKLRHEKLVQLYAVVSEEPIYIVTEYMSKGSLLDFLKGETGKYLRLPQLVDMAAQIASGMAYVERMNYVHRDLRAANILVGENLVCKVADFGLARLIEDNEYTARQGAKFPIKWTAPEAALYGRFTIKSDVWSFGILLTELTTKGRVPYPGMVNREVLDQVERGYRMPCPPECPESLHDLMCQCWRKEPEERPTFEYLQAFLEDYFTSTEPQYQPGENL

SMILES: O=C(Nc1cccc(-c2ncnc3sc(-c4ccncc4)cc23)c1)c1cccc(C(F)(F)F)c1
IC50 [1]: > 10 µM
IC50 [2]: > 10 µM
IC50 [3]: > 10 µM
IC50 [4]: > 10 µM
IC50 [5]: > 10 µM
IC50 (A-375): 230 nM
IC50 [6]: 3.1 µM
IC50 [7]: > 10 µM
IC50 (LoVo): 300 nM
IC50 [8]: > 10 µM
IC50 (HT-29): 150 nM
IC50 [9]: > 10 µM
IC50 [10]: > 10 µM
IC50 [11]: > 10 µM
IC50 (Caco-2): 1100 nM

SMILES: N#Cc1cnc2sc(-c3ccncc3)cc2c1-c1cccc(NC(=O)c2cccc(C(F)(F)F)c2)c1
IC50 [12]: > 10 µM

SMILES: N#Cc1cnc2sc(-c3cccnc3)cc2c1-c1cccc(NC(=O)c2cccc(C(F)(F)F)c2)c1
IC50 [12]: > 10 µM

The remaining lines, values ahead:

IC50 [12]: > 10 µM
SMILES: N#Cc1cnc2cc(-c3cccnc3)sc2c1-c1cccc(NC(=O)c2cccc(C(F)(F)F)c2)c1

IC50 [12]: > 10 µM
SMILES: O=C(Nc1cccc(-c2ncnc3cc(-c4cccnc4)sc23)c1)c1cccc(C(F)(F)F)c1

IC50 [12]: > 10 µM
SMILES: O=C(Nc1cccc(-c2ccnc3cc(-c4cccnc4)nn23)c1)c1cccc(C(F)(F)F)c1
